Source: US20020176842A1, “Extended release of active ingredients” (priority 2001, published 2002)

Assay: Spectrophotometric absorption test method (uptake of drug by unloaded resin)
Assay type: physicochemical
Details: within 5 hours; 55 ml of 98 mg/l indomethacin in simulated intestinal fluid, 43 mg Cholestyramine USP, 318 nm
Description: It is important that the drug be absorbed by the resin. The following test method is useful in determining drug absorption by the resin. In this illustration of the test method, indomethacin and cholestyramine are used. Equipment was set up as described in Example 1, except that the effluent from the uv cell was directed back to the inlet of the pump to produce a circulation flow. 55 ml of a 98 mg/1 solution of indomethacin in simulated intestinal fluid, prepared as described below, was charged to the filtration cell and the pump and stirrer started. Flow rate was approximately 6 ml/min. Absorbance readings were taken on the uv spectrophotometer at a wavelength of 318nm until a steady baseline was obtained. 43 mg of Cholestyramine USP that had been screened to remove particles <75 microns was then added to the cell. Absorbance readings were then taken at frequent intervals to observe the uptake of indomethacin. The absorbance readings were used to calculate the indomethacin concentration from a suitably determined calibration curve and to calculate the total amount of indomethacin absorbed by the resin. In the case of the indomethacin, 92% was absorbed within 5 hours.
Preparation of simulated intestinal fluid: a solution of 6.8 g/l potassium dihydrogen phosphate in deionized water was prepared and sufficient 0.2 mol/1 sodium hydroxide s added to achieve a pH of 7.5.

## COc1ccc2c(c1)c(CC(=O)O)c(C)n2C(=O)c1ccc(Cl)cc1 [indomethacin]
  indomethacin absorbed by the resin: 92%
